{"source": "patent US20160202261A1", "about": "(priority 2011, published 2016)", "key": {"[1]": {"system": "VASP Ser157 and Ser239 phosphorylation in T84 and HCT116 colon cancer cells", "format": "cell-based, human"}, "[2]": {"system": "T84 human colon carcinoma cells", "format": "cell-based"}}}
{"smiles": "Nc1nc2c(nc(Br)n2[C@@H]2O[C@@H]3COP(=O)(O)O[C@H]3[C@H]2O)c(=O)[nH]1", "note": "[8-br-cGMP]", "values": [{"measurement": "VASP phosphorylation at Ser157 and Ser239", "setting": "[1]", "value": "mimicked"}, {"measurement": "Filopodia frequency and length", "setting": "[2]", "value": "impaired"}]}
